Ends that are not written are not given here.
Tested on: C57BL/6 mice
Conditions: mouse

| Sequence | In vivo toxicity, overall finding |
| --- | --- |
| MSPSILKHWSRQGGGKLKKLLLGLLLKK [F6P1] | did not induce primary toxic irritation |
| MSPSILKHWSRQGGGKKLLGLLLKLKLK [F6P6] | did not induce primary toxic irritation |

From PMC10541502 (Science Advances, 2023)
